# Laboratory results published in patent US10954325B2, “Raft agents and their use in the development of polyvinylpyrrolidone grafted nanoparticles” (UNIVERSITY OF SOUTH CAROLINA, priority 2014, dated 2021).
# Tests used:
# [1] = tested on: MRSA 252 (ATCCBAA-1720); experiment: Disk diffusion assay, MRSA 252; format: cell-based, Staphylococcus aureus; details: at low doses
# Description: (§1) The PVP grafted nanoparticles were employed to non-covalently attach the antibiotic penicillin-G (PenG) and tested for activity against bacteria. Methicillin-resistant Staphylococcus aureus (MRSA)-252, HA-MRSA, CA-MRSA and methicillin-sensitive Staphylococcus aureus (MSSA) were selected as the target bacteria. A control group of free PenG with the same dose was used for the disk diffusion assay of PenG-nanoparticle complex. […] Without wishing to be bound by any particular theory, it is believed that the enhanced inhibition activity was due to the locally high concentrations of antibiotics physically attached to PVP grafted nanoparticles, which overwhelms the bacterial resistance. The small size PVP grafted nanoparticles with controllable surface attached polymer chain lengths offers a significant vehicle to restore antibiotics activities.
# (§2) Bacteria Strains: MRSA 252 (ATCCBAA-1720); Staphylococcus aureus ATCC 29213 (community acquired-MRSA); Staphylococcus aureus ATCC BAA 1717 (hospital associated-MRSA); MSSA ATCC BAA 1718. These bacterial strains were grown at 37° C. in tryptic soy broth for 24 hours.
# (§3) Preparation of Nanoparticle-PenG Complex: To prepare the nanoparticle-PenG complex, 15 μL of PVP grafted silica nanoparticles solution (26.65 mg/ml) and 1.85 mL DI water were mixed. 200 μL Penicillin G sodium salt aqueous solution (1 mg/mL) was added and incubated at 24° C. […]
# [2] = tested on: MRSA-252, HA-MRSA, CA-MRSA and MSSA; experiment: Disk diffusion assay, result stated over the tested strains together; format: cell-based, Staphylococcus aureus; details: when physically bound to the PVP grafted silica nanoparticles; against MRSA
# Description: as §1, §2, §3
structure (smiles),measurement,setting,value
"CC1(C)S[C@@H]2[C@H](NC(=O)Cc3ccccc3)C(=O)N2[C@H]1C(=O)[O-].[Na+] [free penicillin-G, penicillin-G]",inhibition activity (disk diffusion),[1],completely ineffective
same,activity of antibiotic over MRSA,[2],significantly increased
